# Results from ChEMBL document CHEMBL1157539, “Thousands of chemical starting points for antimalarial lead identification” (Nature, 2010).
# Tested on: Plasmodium falciparum
# Test: GSK_TCMDC: Inhibition of Plasmodium falciparum 3D7 in whole erythrocytes, using parasite LDH activity as an index of growth.
# Type: functional, organism-based
# Details: Plasmodium falciparum, 3D7
compound,measurement,value
COc1ccc2nc(C)cc(N/N=C/c3ccc([N+](=O)[O-])cc3)c2c1,XC50,695 nM
Cc1cc(C)c2ncc(C(=O)O)c(O)c2c1,XC50,878 nM
O=C(NC1CCN(Cc2ccccc2)CC1)c1ccc2c(=O)n(Cc3ccc(Cl)cc3)c(=S)[nH]c2c1,XC50,998 nM
Oc1nc(Cc2ccccc2)nc2ccc(Cl)cc12,XC50,879 nM
Cc1cnc(C(=O)Nc2cccc(-c3ccc(-c4nc5cc(F)ccc5[nH]4)cc3)c2)cn1,XC50,637 nM
CNC(=O)C1Cc2c([nH]c3cc(Br)ccc23)C2(CCN(CCc3ccccc3)CC2)N1 (configuration not stated),XC50,721 nM
Cc1cc(N2CCOCC2)nc(Nc2ccc(NC(=O)Nc3ccc(F)cc3)cc2)n1,XC50,495 nM
COc1c(CNCCCCCCNCc2c(OC)c(OC)c3ccccc3c2OC)c(OC)c2ccccc2c1OC,XC50,956 nM
CCc1ccc(S(=O)(=O)Nc2ccc(CCN(C)C3CCN(C)CC3)cc2)cc1,XC50,1060 nM
Cc1ccc(Cn2ncc(N3CCCNCC3)c(Cl)c2=O)cc1NC(=O)Nc1ccc(-c2ccccc2)cc1,XC50,625 nM
N=C(Cc1ccc(Cl)cc1)NCCN1CCCCCC1,XC50,742 nM
O=C1Nc2ccc3ncccc3c2/C1=C/Nc1ccc(Cn2ccnc2)cc1,XC50,659 nM
CC1CN(Cc2ccc(-c3ccc(-c4nc5ccccc5[nH]4)cc3)cc2)CC(C)O1 (configuration not stated),XC50,523 nM
COc1ccc(-c2c(C(F)(F)F)nn(C)c2NC(=O)Nc2ccc(F)cc2F)cc1,XC50,797 nM
Cc1cc(=NN=Cc2ccccc2)c2cc(C(F)(F)F)ccc2[nH]1,XC50,153 nM
CCOC(C(=O)OCCN(C(C)C)C(C)C)(c1ccccc1)c1ccccc1,XC50,874 nM
Cc1cc(C2CCN(CCCCNC(=O)c3ccc(NC(=O)c4ccc(Cl)cc4)cc3)CC2)c(C)cc1OC(C)C,XC50,744 nM
COc1ccc(N2CCN(CCCCNC(=O)c3ccc(NC(=O)c4ccc(OC(F)(F)F)cc4)cc3)CC2)c(OC)c1,XC50,578 nM
O=C(c1cccs1)N1CCN(c2ccc([N+](=O)[O-])c(NC3CC3)c2)CC1,XC50,767 nM
COc1ccc2nccc([C@@H](O)CN3CCC(NCCOc4ccncc4)CC3)c2c1,XC50,690 nM
O=S(=O)(NCCN1CCCC1)c1cccc(-c2ccc(CNCc3ccc(F)cc3)cc2)c1,XC50,234 nM
O=C(NC1CCC1)C1CCN(C(c2ccc(Cl)cc2)c2ccc(Cl)cc2)CC1,XC50,562 nM
CC(C)c1cc(Oc2c(I)cc(CCCc3ncc[nH]3)cc2I)ccc1O,XC50,1120 nM
CC(C)N1CCCN(C(=O)C2CCN(c3ccc(C(=O)N4CCCC4)cn3)CC2)CC1,XC50,1060 nM
Cc1ccc(C)c2sc(N3CCN(C(=O)c4ccc([N+](=O)[O-])o4)CC3)nc12,XC50,819 nM
ON=C1c2cc(OCCN3CCCCC3)c(Cl)cc2-c2cc(Cl)c(OCCN3CCCCC3)cc21,XC50,703 nM
Cc1cccc2nc(-c3cccc(-c4cccc(NC(=O)Nc5ccc(Cl)c(Cl)c5)c4)c3)[nH]c12,XC50,375 nM
CCC(=O)N[C@@H]1CN[C@@H](C#Cc2cc3c(Nc4ccc(OCc5cccc(F)c5)c(Cl)c4)ncnc3s2)C1,XC50,1120 nM
COc1ccc(-c2nc3c(N)nc(N)nc3nc2-c2ccccc2Cl)cc1.COc1ccc(-c2nc3nc(N)nc(N)c3nc2-c2ccccc2Cl)cc1,XC50,549 nM
CN(C)CCNc1nccc(N2CCc3ncnc(Nc4ccc(OCc5cccc(F)c5)c(Cl)c4)c3C2)n1,XC50,138 nM
Cc1cccc2nc(-c3ccc(-c4cccc(CNCc5cccc(N)c5)c4)s3)[nH]c12,XC50,517 nM
Cc1cc(-c2ccc(CNCCc3cccs3)cc2)ccc1S(=O)(=O)NCc1ccccc1,XC50,1140 nM
COc1cc2c(Nc3ccc(Br)cc3F)ncnc2cc1OCC1CCN(C)CC1,XC50,770 nM
O=C(NC(CCCN1CCC(c2ccccc2)CC1)c1ccc(Cl)c(Cl)c1)c1cc(C(F)(F)F)cc(C(F)(F)F)c1 (configuration not stated),XC50,865 nM
COc1ccc(O)c(Cc2cnc3nc(N)[nH]c(=O)c3c2C)c1,XC50,234 nM
CN(c1ccccc1)c1ccnc(NC(=N)Nc2ccc(Cl)cc2)n1,XC50,1090 nM
CCCN(Cc1nnc(-c2cccs2)o1)C(=O)CSc1nnnn1-c1ccc(C)c(C)c1,XC50,582 nM
Cn1ccc(-c2cccc(Nc3ccnc4cc(-c5nccs5)ccc34)c2)n1,XC50,405 nM
CCNc1cc(C(=O)N[C@@H](Cc2ccccc2)[C@H](O)CNCc2cc(OC)cc(OC)c2)cc(N2CCCS2(=O)=O)c1,XC50,43 nM
COc1ccc2nccc([C@@H](O)CN3CCC(c4cc(-c5ccc(Cl)cc5)[nH]n4)CC3)c2n1,XC50,737 nM
CC(C)N1CCN(c2ccc(OCCCCN3CCN(c4cccc(Cl)c4Cl)CC3)c(C(F)(F)F)c2)CC1,XC50,815 nM
Clc1cc(Cl)c2cc(CNCCCNc3ccc4ccccc4n3)[nH]c2c1,XC50,339 nM
CN(C)C(=O)c1ccc(CN(Cc2ccc(OC(C)(C)C)cc2)Cc2ccc3c(c2)OCCO3)cc1,XC50,829 nM
CNc1ccc(CNCc2ccc(-c3ccc(-c4nc5cccc(C)c5[nH]4)cc3)cc2)cc1,XC50,319 nM
COc1ccc(-c2cnc3[nH]cc(-c4ccc(CCC(=O)O)cc4)c3c2)cn1,XC50,773 nM
CCN(CC)S(=O)(=O)n1ncc2c3c(N)nc(N)nc3ccc21,XC50,54.9 nM
Cc1occc1C(=O)Nc1nc(-c2ccccn2)nc2ccsc12,XC50,899 nM
COc1ccc(Cl)cc1C(=O)Nc1ccc(-c2nc3ccccc3[nH]2)cc1,XC50,774 nM
CC(C)(C)c1ccccc1SC1=C(O)CC2(CCNCC2)OC1=O,XC50,884 nM
Clc1cc(Nc2ncnc3sc(C#C[C@H]4CCCN4)cc23)ccc1OCc1cccnc1Cl,XC50,569 nM
Cc1cccc2nc(-c3cccc(-c4ccc(NC(=O)C(C)CN5CCOCC5)cc4)c3)[nH]c12 (configuration not stated),XC50,689 nM
O=C(c1ccccc1[N+](=O)[O-])N(Cc1ccccc1)c1ccccn1,XC50,192 nM
O=C(/C=C/c1ccsc1)NC1CCC(CN2CCC(c3c[nH]c4ccccc34)CC2)CC1 (configuration not stated),XC50,1120 nM
Brc1ccc(C=NNc2nc3ccccc3[nH]2)cc1,XC50,700 nM
Cc1[nH]c(C)c(-c2ccc(-c3cccc(C(F)(F)F)c3)nc2)c(=O)c1Br,XC50,140 nM
COc1cc2c(cc1OC)CC(NCc1ccc(-c3ccc4nc[nH]c4c3)cc1)C2,XC50,846 nM
COc1ccc(CC(C)NCC(O)c2cccc(Br)c2)cc1 (configuration not stated),XC50,961 nM
CCOCCCn1c(=N)c(C(=O)NCc2ccc(F)cc2)cc2c(=O)n3cccc(C)c3nc21,XC50,526 nM
Nc1nc(Nc2cccc(O)c2)nc2ccccc12,XC50,791 nM
CCNc1c2ccc(Cl)cc2nc2ccc(OC)cc12,XC50,843 nM
Nc1nc(N)c2cc(C(F)(F)F)ccc2n1,XC50,1130 nM
Cc1cccc(C(O)CNc2ccnc(Nc3cccc(-c4csc(C)n4)c3)n2)c1 (configuration not stated),XC50,675 nM
Cc1cc(N[C@@H](Cc2ccccc2)C(=O)Nc2ccccc2)nc(NCCc2ccccn2)n1,XC50,874 nM
CC(=O)Nc1ccc(Nc2cc(C)nc(Nc3ccc(NC(C)=O)cc3)n2)cc1,XC50,894 nM
COc1cccc(C(=O)C2CC2CN2CC=C(c3c[nH]c4ccc(OC)nc34)CC2)c1 (configuration not stated),XC50,526 nM
CC(CN(C)C)C(=O)Nc1ccc(-c2ccc(-c3nc4cc(C(F)(F)F)ccc4[nH]3)cc2)cc1 (configuration not stated),XC50,747 nM
CC(CN(C)C)C(=O)Nc1cccc(-c2ccc(-c3nc4cc(F)ccc4[nH]3)s2)c1 (configuration not stated),XC50,801 nM
Cc1ccccc1C1CCN(C2CCC(NC(=O)/C=C/c3cccc(Cl)c3Cl)CC2)CC1 (configuration not stated),XC50,1030 nM
COc1ccccc1COc1c(C)nc(N)nc1N,XC50,706 nM
COc1ccc(C2CCN(CCCNC(=O)c3ccc(NC(=O)c4ccc(Cl)cc4)cc3)CC2)c(OC)c1,XC50,763 nM
Cc1ccccc1C1CCN(C2CCC(NC(=O)/C=C/c3cccc(Cl)c3)CC2)CC1 (configuration not stated),XC50,891 nM
Cc1cc2c(cc1C(F)(F)F)N(C(=O)Nc1ccc(OCCN(C)C)c(C(F)(F)F)c1)CC2,XC50,905 nM
